# Results published in ChEMBL document CHEMBL4346678, “Synthesis and anti-cancer evaluation of folic acid-peptide- paclitaxel conjugates for addressing drug resistance” (Eur J Med Chem, 2019).
# The source made the active and inactive calls. The rule behind the calls is not given here. Starred links: 1 amine or outer side, 2 acyl side, 3 side chain; linkers in the order of their positions; H or OH if unused. Residues, ends and D or L forms follow the SMILES beside them. *: point of attachment. X1 = CC(=O)O[C@H]1C(=O)[C@@]2(C)[C@H]([C@H](OC(=O)c3ccccc3)[C@]3(O)C[C@H](OC(=O)[C@H](OC(=O)CCCCCN4C(=O)CC(*)C4=O)[C@@H](NC(=O)c4ccccc4)c4ccccc4)C(C)=C1C3(C)C)[C@]1(OC(C)=O)CO[C@@H]1C[C@@H]2O; Pteroyl = Nc1nc2ncc(CNc3ccc(C(=O)*)cc3)nc2c(=O)[nH]1; γGlu = O=C(O)[C@H](CCC(=O)[*:2])N[*:1]
# Legend:
# A2780 = test: Cytotoxicity against human A2780 cells incubated for 48 hrs by MTT assay; type: functional, cell-based; conditions: A2780, 48 h
# MCF7/PTX [1] = test: Induction of apoptosis in human MCF7/PTX cells assessed as necrotic cells at 1 uM incubated for 12 hrs by Annexin V-FITC/propidium iodide staining based flow cytometric analysis (reference value: 2.1%); type: functional
# MCF7/PTX [2] = test: Induction of apoptosis in human MCF7/PTX cells assessed as early apoptotic cells at 2 uM incubated for 12 hrs by Annexin V-FITC/propidium iodide staining based flow cytometric analysis (reference value: 1.1%); type: functional
# MCF7/PTX [3] = test: Induction of apoptosis in human MCF7/PTX cells assessed as necrotic cells at 4 uM incubated for 12 hrs by Annexin V-FITC/propidium iodide staining based flow cytometric analysis (reference value: 2.1%); type: functional
# [4] = Toxicity in ICR mouse xenografted with […] H22 cells assessed as change in body weight at 12 umol/kg administered once every 2 days via peritumoral route for 2 weeks; conditions: in vivo, other
# HUVEC = test: Cytotoxicity against HUVEC incubated for 48 hrs by MTT assay; type: cell-based; conditions: Homo sapiens
# MCF7 = test: Cytotoxicity against human MCF7 cells incubated for 48 hrs by MTT assay; type: functional, cell-based; conditions: MCF7, 48 h
# MCF7/PTX [5] = test: Induction of membrane disruption in human MCF7/PTX cells incubated for 12 hrs by LDH release assay; type: functional, cell-based
# MCF7/PTX [6] = test: Induction of apoptosis in human MCF7/PTX cells assessed as early apoptotic cells at 0.5 uM incubated for 12 hrs by Annexin V-FITC/propidium iodide staining based flow cytometric analysis (reference value: 1.1%); type: functional
# MCF7/PTX [7] = test: Induction of apoptosis in human MCF7/PTX cells assessed as necrotic cells at 6 uM incubated for 12 hrs by Annexin V-FITC/propidium iodide staining based flow cytometric analysis (reference value: 2.1%); type: functional
# MCF7/PTX [8] = test: Induction of apoptosis in human MCF7/PTX cells assessed as late apoptotic cells at 4 uM incubated for 12 hrs by Annexin V-FITC/propidium iodide staining based flow cytometric analysis (reference value: 0.9%); type: functional
# [9] = Solubility of the compound in water; type: physicochemical
# [10] = Half life in Wistar rat plasma at 500 ug/ml measured over 24 hrs at 37 degC by UPLC/MS analysis; type: ADME, cell-free
# MCF7/PTX [11] = test: Induction of apoptosis in human MCF7/PTX cells assessed as live cells at 1 uM incubated for 12 hrs by Annexin V-FITC/propidium iodide staining based flow cytometric analysis (reference value: 95.9%); type: functional
# MCF7/PTX [12] = test: Induction of apoptosis in human MCF7/PTX cells assessed as early apoptotic cells at 3 uM incubated for 12 hrs by Annexin V-FITC/propidium iodide staining based flow cytometric analysis (reference value: 1.1%); type: functional
# MCF7/PTX [13] = test: Induction of apoptosis in human MCF7/PTX cells assessed increase in cytochrome-c expression in cytoplasm at 3 uM incubated for 2 hrs by Western blot analysis; type: functional, cell-based
# MCF7/PTX [14] = test: Induction of apoptosis in human MCF7/PTX cells assessed as live cells at 2 uM incubated for 12 hrs by Annexin V-FITC/propidium iodide staining based flow cytometric analysis (reference value: 95.9%); type: functional
# MCF7/PTX [15] = test: Induction of apoptosis in human MCF7/PTX cells assessed as live cells at 3 uM incubated for 12 hrs by Annexin V-FITC/propidium iodide staining based flow cytometric analysis (reference value: 95.9%); type: functional
# MCF7/PTX [16] = test: Induction of apoptosis in human MCF7/PTX cells assessed as increase in cleaved caspase 3 level in cytoplasm at 3 uM incubated for 2 hrs by Western blot analysis; type: functional, cell-based
# MCF7/PTX [17] = test: Induction of apoptosis in human MCF7/PTX cells assessed as early apoptotic cells at 4 uM incubated for 12 hrs by Annexin V-FITC/propidium iodide staining based flow cytometric analysis (reference value: 1.1%); type: functional
# MCF7/PTX [18] = test: Induction of apoptosis in human MCF7/PTX cells assessed as late apoptotic cells at 0.5 uM incubated for 12 hrs by Annexin V-FITC/propidium iodide staining based flow cytometric analysis (reference value: 0.9%); type: functional
# K562 = test: Cytotoxicity against human K562 cells incubated for 48 hrs by MTT assay; type: functional, cell-based; conditions: K562, 48 h
# MCF7/PTX [19] = test: Induction of mitochondrial membrane potential loss in human MCF7/PTX cells at 3 uM incubated for 12 hrs by JC1 staining-based confocal microscopic method; type: functional, cell-based
# MCF7/PTX [20] = test: Induction of apoptosis in human MCF7/PTX cells assessed as necrotic cells at 3 uM incubated for 12 hrs by Annexin V-FITC/propidium iodide staining based flow cytometric analysis (reference value: 2.1%); type: functional
# [21] = Antitumor activity against […] cells xenografted in ICR mouse assessed as reduction in tumor volume at 12 umol/kg administered once every 2 days via peritumoral route for 2 weeks measured for 22 days by caliper analysis relative to control; type: functional
# MCF7/PTX [22] = test: Induction of membrane disruption in human MCF7/PTX cells at 3 uM incubated for 12 hrs by AO/EB double staining based fluorescence microscopic method; type: functional, cell-based
# MCF7/PTX [23] = test: Induction of apoptosis in human MCF7/PTX cells assessed as live cells at 0.5 uM incubated for 12 hrs by Annexin V-FITC/propidium iodide staining based flow cytometric analysis (reference value: 95.9%); type: functional
# MCF7/PTX [24] = test: Induction of apoptosis in human MCF7/PTX cells assessed as live cells at 4 uM incubated for 12 hrs by Annexin V-FITC/propidium iodide staining based flow cytometric analysis (reference value: 95.9%); type: functional
# MCF7/PTX [25] = test: Induction of apoptosis in human MCF7/PTX cells assessed as late apoptotic cells at 3 uM incubated for 12 hrs by Annexin V-FITC/propidium iodide staining based flow cytometric analysis (reference value: 0.9%); type: functional
# MCF7/PTX [26] = test: Induction of apoptosis in human MCF7/PTX cells incubated for 12 hrs by Annexin V-FITC/propidium iodide staining-based flow cytometric analysis; type: functional, cell-based
# Erythrocyte = test: Hemolytic activity in Wistar rat erythrocytes incubated for 1 hr; type: ADME, cell-based
# MCF7/PTX [27] = test: Induction of apoptosis in human MCF7/PTX cells assessed as early apoptotic cells at 1 uM incubated for 12 hrs by Annexin V-FITC/propidium iodide staining based flow cytometric analysis (reference value: 1.1%); type: functional
# MCF7/PTX [28] = test: Induction of apoptosis in human MCF7/PTX cells assessed as early apoptotic cells at 6 uM incubated for 12 hrs by Annexin V-FITC/propidium iodide staining based flow cytometric analysis (reference value: 1.1%); type: functional
# MCF7/PTX [29] = test: Induction of apoptosis in human MCF7/PTX cells assessed as live cells at 6 uM incubated for 12 hrs by Annexin V-FITC/propidium iodide staining based flow cytometric analysis (reference value: 95.9%); type: functional
# Tubulin (Sus scrofa) = Tubulin (Sus scrofa) (UniProt P02554+P02550); test: Induction of porcine brain tubulin polymerization at 3 uM by fluorescence analysis
# Sequence of Tubulin (Sus scrofa) (P02550 whole entry, looked up): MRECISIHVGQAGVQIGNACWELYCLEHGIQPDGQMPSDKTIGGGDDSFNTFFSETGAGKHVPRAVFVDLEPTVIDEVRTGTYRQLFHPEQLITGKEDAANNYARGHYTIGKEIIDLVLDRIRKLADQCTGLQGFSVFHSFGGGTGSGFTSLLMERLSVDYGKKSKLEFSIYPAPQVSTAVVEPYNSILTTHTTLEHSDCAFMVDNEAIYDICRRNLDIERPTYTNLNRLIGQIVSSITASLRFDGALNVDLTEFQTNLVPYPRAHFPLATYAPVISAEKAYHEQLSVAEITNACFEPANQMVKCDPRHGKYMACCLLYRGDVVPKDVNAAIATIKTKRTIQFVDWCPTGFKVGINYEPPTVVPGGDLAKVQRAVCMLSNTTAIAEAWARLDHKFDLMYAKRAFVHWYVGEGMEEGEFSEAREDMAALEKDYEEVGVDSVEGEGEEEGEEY
# Sequence of Tubulin (Sus scrofa) (P02554 whole entry, looked up): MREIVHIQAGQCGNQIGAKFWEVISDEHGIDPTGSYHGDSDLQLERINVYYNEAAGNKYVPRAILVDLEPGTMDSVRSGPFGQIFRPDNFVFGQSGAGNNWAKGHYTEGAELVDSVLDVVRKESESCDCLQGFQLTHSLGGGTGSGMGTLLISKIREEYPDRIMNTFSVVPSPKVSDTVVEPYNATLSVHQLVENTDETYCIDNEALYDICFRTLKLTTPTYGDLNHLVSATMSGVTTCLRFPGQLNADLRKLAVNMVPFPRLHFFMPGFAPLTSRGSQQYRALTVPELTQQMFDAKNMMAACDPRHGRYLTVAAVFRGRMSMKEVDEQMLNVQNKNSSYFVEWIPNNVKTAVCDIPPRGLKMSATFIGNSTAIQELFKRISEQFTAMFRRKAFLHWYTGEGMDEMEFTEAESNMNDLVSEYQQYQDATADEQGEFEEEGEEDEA
# MCF7/PTX [30] = test: Induction of apoptosis in human MCF7/PTX cells assessed as necrotic cells at 0.5 uM incubated for 12 hrs by Annexin V-FITC/propidium iodide staining based flow cytometric analysis (reference value: 2.1%); type: functional
# MCF7/PTX [31] = test: Induction of apoptosis in human MCF7/PTX cells assessed as late apoptotic cells at 2 uM incubated for 12 hrs by Annexin V-FITC/propidium iodide staining based flow cytometric analysis (reference value: 0.9%); type: functional
# MCF7/PTX [32] = test: Induction of apoptosis in human MCF7/PTX cells assessed as late apoptotic cells at 1 uM incubated for 12 hrs by Annexin V-FITC/propidium iodide staining based flow cytometric analysis (reference value: 0.9%); type: functional
# MCF7/PTX [33] = test: Induction of apoptosis in human MCF7/PTX cells assessed as necrotic cells at 2 uM incubated for 12 hrs by Annexin V-FITC/propidium iodide staining based flow cytometric analysis (reference value: 2.1%); type: functional
# MCF7/PTX [34] = test: Cytotoxicity against human MCF7/PTX cells incubated for 48 hrs by MTT assay; type: functional, cell-based
# MCF7/PTX [35] = test: Induction of apoptosis in human MCF7/PTX cells assessed as late apoptotic cells at 6 uM incubated for 12 hrs by Annexin V-FITC/propidium iodide staining based flow cytometric analysis (reference value: 0.9%); type: functional
# MCF7/PTX [36] = test: Induction of membrane disruption in human MCF7/PTX cells incubated for 12 hrs by AO/EB double-staining based fluorescence microscopic method; type: functional, cell-based
# SK-OV-3 = test: Cytotoxicity against human SKOV3 cells incubated for 48 hrs by MTT assay; type: functional, cell-based; conditions: SK-OV-3, 48 h
smiles,measurement,setting,value
CC(=O)O[C@H]1C(=O)[C@@]2(C)[C@H]([C@H](OC(=O)c3ccccc3)[C@]3(O)C[C@H](OC(=O)[C@H](OC(=O)CCCCCN4C(=O)CC(SC[C@H](NC(=O)[C@H](CCCNC(=N)N)NC(=O)[C@H](CCCNC(=N)N)NC(=O)[C@H](CC(C)C)NC(=O)[C@H](CCCNC(=N)N)NC(=O)[C@H](CCCNC(=N)N)NC(=O)[C@H](Cc5ccccc5)NC(=O)[C@H](Cc5ccccc5)NC(=O)[C@H](CCCNC(=N)N)NC(=O)[C@H](CCCNC(=N)N)NC(=O)[C@H](Cc5ccccc5)NC(=O)[C@H](CCCNC(=N)N)NC(=O)[C@H](CCCNC(=N)N)NC(=O)[C@@H](NC(=O)[C@H](CC(C)C)NC(=O)CC[C@H](NC(=O)c5ccc(NCc6cnc7nc(N)[nH]c(=O)c7n6)cc5)C(=O)O)C(C)C)C(=O)N[C@H](C(=O)N[C@@H](CC(C)C)C(=O)N[C@@H](CC(C)C)C(N)=O)C(C)C)C4=O)[C@@H](NC(=O)c4ccccc4)c4ccccc4)C(C)=C1C3(C)C)[C@]1(OC(C)=O)CO[C@@H]1C[C@@H]2O (stereo partly drawn) ({Pteroyl-γGlu}-LVRRFRRFFRRLRRC(X1)VLL-NH2),IC50,A2780,1.42 µM
same,Activity,MCF7/PTX [1],5.6%
same,Activity,MCF7/PTX [2],1.5%
same,Activity,MCF7/PTX [3],15.1%
same,Activity,[4],Non-Toxic
same,IC50,HUVEC,45.2 µM
same,IC50,MCF7,1.39 µM
same,Activity,MCF7/PTX [5],Dose-dependent effect
same,Activity,MCF7/PTX [6],2.4%
same,Activity,MCF7/PTX [7],7.5%
same,Activity,MCF7/PTX [8],54.6%
same,solubility,[9],> 20 mg/mL
same,half-life at 500 ug/ml,[10],5.9 h
same,Activity,MCF7/PTX [11],81.4%
same,Activity,MCF7/PTX [12],1.2%
same,Activity,MCF7/PTX [13],Active
same,Activity,MCF7/PTX [14],65.8%
same,Activity,MCF7/PTX [15],51.6%
same,Activity,MCF7/PTX [16],Active
same,Activity,MCF7/PTX [17],1.4%
same,Activity,MCF7/PTX [18],7.4%
same,IC50,K562,3.85 µM
same,Activity,MCF7/PTX [19],Active
same,Activity,MCF7/PTX [20],5.6%
same,inhibition in vivo at 12 µmol/kg,[21],69%
same,Activity,MCF7/PTX [22],Active
same,Activity,MCF7/PTX [23],83.1%
same,Activity,MCF7/PTX [24],28.8%
same,Activity,MCF7/PTX [25],41.6%
same,Activity,MCF7/PTX [26],Dose-dependent effect
same,Activity,Erythrocyte,Toxic
same,Activity,MCF7/PTX [27],1.6%
same,Activity,MCF7/PTX [28],1.3%
same,Activity,MCF7/PTX [29],29.2%
same,Activity,Tubulin (Sus scrofa),Active
same,Activity,MCF7/PTX [30],7.1%
same,Activity,MCF7/PTX [31],28.8%
same,Activity,MCF7/PTX [32],11.4%
same,Activity,MCF7/PTX [33],3.9%
same,IC50,MCF7/PTX [34],2.92 µM
same,Activity,MCF7/PTX [35],62%
same,Activity,MCF7/PTX [36],Dose-dependent effect
same,IC50,SK-OV-3,5.49 µM
